The results in this text go back to patent US9840513B2 (AbbVie S.à.r.l., priority 2015, dated 2017).

Usually EC50 stands for the midpoint of the concentration-response curve. Low readings indicate a more potent agent, high ones a less potent agent.

The target in this experiment is T1, F508delCFTR cell surface expression in CFBE41o-F508delCFTR-HRP cells (Homo sapiens, UniProt P13569, DEL508-508).
T1 construct: fused on or other part: Horseradish peroxidase (HRP) reporter inserted in the fourth exofacial (extracellular) loop of CFTR; expression is doxycycline-inducible
Description: Cell Surface Expression-Horse Radish Peroxidase (CSE-HRP) Assay. It is filed as cell-based. As to conditions: for EC50: CFBE41o-F508delCFTR-HRP cells, 18-24 hours at 33° C., 8-point curve, highest concentration 20 μM; for Maximum % activity (%): maximum at any tested concentration, normalized to on-plate positive control (3 μM). Summed up:
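CFBE41o- cells with HRP-tagged F508delCFTR, expression induced by 0.5 μg/mL doxycycline for 72 h at 37 °C, then compound for 18-24 h at 33 °C (8-point, 3-fold, top 20 μM). Surface HRP measured by luminol luminescence; % activity normalised to 3 μM positive-control corrector; EC50 from variable-slope sigmoidal fit, three replicate plates.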

T1 sequence (P13569 with tags, fused parts or gaps DEL508-508 limits assumed): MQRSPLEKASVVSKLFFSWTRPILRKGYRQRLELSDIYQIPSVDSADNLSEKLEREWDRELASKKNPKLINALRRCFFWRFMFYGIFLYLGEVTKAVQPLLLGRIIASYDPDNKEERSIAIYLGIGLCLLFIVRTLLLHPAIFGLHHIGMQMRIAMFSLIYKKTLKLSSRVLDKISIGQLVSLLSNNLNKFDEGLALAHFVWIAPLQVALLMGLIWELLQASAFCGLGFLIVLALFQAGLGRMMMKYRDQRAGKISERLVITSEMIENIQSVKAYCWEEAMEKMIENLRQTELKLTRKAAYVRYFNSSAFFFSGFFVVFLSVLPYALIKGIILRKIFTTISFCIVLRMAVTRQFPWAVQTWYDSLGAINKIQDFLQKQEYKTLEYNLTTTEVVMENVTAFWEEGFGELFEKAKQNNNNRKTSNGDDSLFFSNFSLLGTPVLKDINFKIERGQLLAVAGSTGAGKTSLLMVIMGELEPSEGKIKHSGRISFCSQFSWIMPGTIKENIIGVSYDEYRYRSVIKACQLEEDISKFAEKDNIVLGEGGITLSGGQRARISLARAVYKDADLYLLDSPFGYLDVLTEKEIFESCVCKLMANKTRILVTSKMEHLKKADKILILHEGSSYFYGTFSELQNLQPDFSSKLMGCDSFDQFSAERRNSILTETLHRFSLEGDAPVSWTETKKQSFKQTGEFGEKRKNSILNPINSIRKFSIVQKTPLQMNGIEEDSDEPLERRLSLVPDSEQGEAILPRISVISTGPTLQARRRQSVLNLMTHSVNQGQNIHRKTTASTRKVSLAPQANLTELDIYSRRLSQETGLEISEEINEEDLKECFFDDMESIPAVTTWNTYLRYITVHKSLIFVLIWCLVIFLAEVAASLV
T1 sequence (P13569 919-1480 limits assumed, stated change not applied): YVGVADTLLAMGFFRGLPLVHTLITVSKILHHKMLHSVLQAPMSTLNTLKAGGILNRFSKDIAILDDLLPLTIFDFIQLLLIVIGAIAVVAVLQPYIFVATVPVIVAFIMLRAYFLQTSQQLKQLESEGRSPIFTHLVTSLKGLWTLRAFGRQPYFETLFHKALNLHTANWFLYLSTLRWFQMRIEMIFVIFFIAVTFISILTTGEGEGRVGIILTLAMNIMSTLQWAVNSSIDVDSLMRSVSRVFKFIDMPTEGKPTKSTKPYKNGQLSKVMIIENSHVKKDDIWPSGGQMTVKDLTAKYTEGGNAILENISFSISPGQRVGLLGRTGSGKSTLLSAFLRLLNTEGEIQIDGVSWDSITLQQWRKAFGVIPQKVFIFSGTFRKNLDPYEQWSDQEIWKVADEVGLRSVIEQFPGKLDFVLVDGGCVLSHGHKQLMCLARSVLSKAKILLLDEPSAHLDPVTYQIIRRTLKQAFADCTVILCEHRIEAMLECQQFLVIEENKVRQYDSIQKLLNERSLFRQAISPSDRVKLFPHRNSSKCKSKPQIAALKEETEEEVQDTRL

Turning to `C[C@]1(C(=O)Nc2cccc(N3CCCC3)n2)COc2cc3c(cc21)OC(F)(F)O3` [Example 118, (7R)-2,2-difluoro-7-methyl-N-[6-(pyrrolidin-1-yl)pyridin-2-yl]-6,7-dihydro-2H-furo[2,3-f][1,3]benzodioxole-7-carboxamide], the EC50 was determined as 1220 nM and the “Maximum % activity (%)” value is listed as 123%.
For `C[C@]1(C(=O)Nc2cccc(N3CCCCC3)n2)COc2cc3c(cc21)OC(F)(F)O3` [Example 119, (7R)-2,2-difluoro-7-methyl-N-[6-(piperidin-1-yl)pyridin-2-yl]-6,7-dihydro-2H-furo[2,3-f][1,3]benzodioxole-7-carboxamide] the same measures were 1180 nM and 136%.
For `Cc1cc(C(=O)O)ccc1-c1cccc(NC(=O)[C@@]2(C)COc3cc4c(cc32)OC(F)(F)O4)n1` [Example 120, 4-(6-{[(7R)-2,2-difluoro-7-methyl-6,7-dihydro-2H-furo[2,3-f][1,3]benzodioxole-7-carbonyl]amino}pyridin-2-yl)-3-methylbenzoic acid] the same measures were 1440 nM and 253%.
Taken in the same sequence, the figures for `Cc1c(C(=O)O)cccc1-c1cccc(NC(=O)[C@@]2(C)COc3cc4c(cc32)OC(F)(F)O4)n1` [Example 122, 3-(6-{[(7R)-2,2-difluoro-7-methyl-6,7-dihydro-2H-furo[2,3-f][1,3]benzodioxole-7-carbonyl]amino}pyridin-2-yl)-2-methylbenzoic acid] were 1940 nM and 173%.
Turning to `C[C@]1(C(=O)Nc2cccc(-c3ccc(C(=O)O)cc3F)n2)COc2cc3c(cc21)OC(F)(F)O3` [Example 123, 4-(6-{[(7R)-2,2-difluoro-7-methyl-6,7-dihydro-2H-furo[2,3-f][1,3]benzodioxole-7-carbonyl]amino}pyridin-2-yl)-3-fluorobenzoic acid], the EC50 worked out at 1530 nM and the “Maximum % activity (%)” value came out at 189%.
Taken in the same sequence, the figures for `Cc1ccc(NC(=O)[C@@]2(C)COc3cc4c(cc32)OC(F)(F)O4)nc1-c1cccc(S(=O)(=O)NC2CC2)c1` [Example 124, (7R)—N-{6-[3-(cyclopropylsulfamoyl)phenyl]-5-methylpyridin-2-yl}-2,2-difluoro-7-methyl-6,7-dihydro-2H-furo[2,3-f][1,3]benzodioxole-7-carboxamide] were 740 nM and 124%.
For `C[C@]1(C(=O)Nc2cccc(-c3cccc(C(=O)O)c3F)n2)COc2cc3c(cc21)OC(F)(F)O3` [Example 125, 3-(6-{[(7R)-2,2-difluoro-7-methyl-6,7-dihydro-2H-furo[2,3-f][1,3]benzodioxole-7-carbonyl]amino}pyridin-2-yl)-2-fluorobenzoic acid] the same measures were 1390 nM and 136%.
For `Cc1ccc(NC(=O)[C@@]2(C)COc3cc4c(cc32)OC(F)(F)O4)nc1-c1cccc(C(O)CO)c1` (stereo partly drawn) [Example 126, (7R)—N-{6-[3-(1,2-dihydroxyethyl)phenyl]-5-methylpyridin-2-yl}-2,2-difluoro-7-methyl-6,7-dihydro-2H-furo[2,3-f][1,3]benzodioxole-7-carboxamide] the same measures were 620 nM and 140%.
For the compound `Cc1ccc(NC(=O)[C@@]2(C)COc3cc4c(cc32)OC(F)(F)O4)nc1-c1cc(C(=O)O)cs1` [Example 127, 5-(6-{[(7R)-2,2-difluoro-7-methyl-6,7-dihydro-2H-furo[2,3-f][1,3]benzodioxole-7-carbonyl]amino}-3-methylpyridin-2-yl)thiophene-3-carboxylic acid], the EC50 turned out to be 460 nM and the “Maximum % activity (%)” value is listed as 140%.
For `C[C@]1(C(=O)Nc2cccc(-c3cc(C(=O)O)ccc3F)n2)COc2cc3c(cc21)OC(F)(F)O3` [Example 128, 3-(6-{[(7R)-2,2-difluoro-7-methyl-6,7-dihydro-2H-furo[2,3-f][1,3]benzodioxole-7-carbonyl]amino}pyridin-2-yl)-4-fluorobenzoic acid] the same measures were 4960 nM and 172%.
For `Cc1ccc(C(=O)O)cc1-c1cccc(NC(=O)[C@@]2(C)COc3cc4c(cc32)OC(F)(F)O4)n1` [Example 129, 3-(6-{[(7R)-2,2-difluoro-7-methyl-6,7-dihydro-2H-furo[2,3-f][1,3]benzodioxole-7-carbonyl]amino}pyridin-2-yl)-4-methylbenzoic acid] the same measures were 2260 nM and 129%.
Taken in the same sequence, the figures for `CC(C)(C)c1cc2cc(NC(=O)[C@@]3(C)COc4cc5c(cc43)OC(F)(F)O5)ccc2[nH]1` [Example 131, (7R)—N-(2-tert-butyl-1H-indol-5-yl)-2,2-difluoro-7-methyl-6,7-dihydro-2H-furo[2,3-f][1,3]benzodioxole-7-carboxamide] were 1310 nM and 173%.
For `CC(C)(C)c1cc2cc(NC(=O)[C@@]3(C)COc4cc5c(cc43)OC(F)(F)O5)c(F)cc2n1C[C@@H](O)COCc1ccccc1` [Example 132, (7R)—N-{1-[(2R)-3-(benzyloxy)-2-hydroxypropyl]-2-tert-butyl-6-fluoro-1H-indol-5-yl}-2,2-difluoro-7-methyl-6,7-dihydro-2H-furo[2,3-f][1,3]benzodioxole-7-carboxamide], the EC50 worked out at 330 nM and the “Maximum % activity (%)” value was determined as 138%.
For `CC(C)(C)c1cc2cc(NC(=O)[C@@]3(C)COc4cc5c(cc43)OC(F)(F)O5)c(F)cc2n1C[C@@H](O)CO` [Example 133, (7R)—N-{2-tert-butyl-1-[(2R)-2,3-dihydroxypropyl]-6-fluoro-1H-indol-5-yl}-2,2-difluoro-7-methyl-6,7-dihydro-2H-furo[2,3-f][1,3]benzodioxole-7-carboxamide] the same measures were 300 nM and 132%.
Taken in the same sequence, the figures for `CC(C)(CO)c1cc2cc(NC(=O)[C@]3(C)COc4cc5c(cc43)OC(F)(F)O5)c(F)cc2n1C[C@@H](O)CO` [Example 138, (7S)—N-{1-[(2R)-2,3-dihydroxypropyl]-6-fluoro-2-(1-hydroxy-2-methylpropan-2-yl)-1H-indol-5-yl}-2,2-difluoro-7-methyl-6,7-dihydro-2H-furo[2,3-f][1,3]benzodioxole-7-carboxamide] were 7650 nM and 23%.
For `C[C@]1(C(=O)N[C@@H]2C[C@H](c3ccc(C(=O)O)cc3)Oc3cc(OC(F)F)ccc32)COc2cc3c(cc21)OC(F)(F)O3` [Example 139, 4-[(2R,4R)-7-(difluoromethoxy)-4-{[(7R)-2,2-difluoro-7-methyl-6,7-dihydro-2H-furo[2,3-f][1,3]benzodioxole-7-carbonyl]amino}-3,4-dihydro-2H-1-benzopyran-2-yl]benzoic acid] the same measures were 20 nM and 158%.
Regarding `Cc1ccc(NC(=O)[C@@]2(C)COc3cc4c(cc32)OC(F)(F)O4)nc1-c1ccc(C(=O)NS(C)(=O)=O)cc1` [Example 142, (7R)-2,2-difluoro-N-(6-{4-[(methanesulfonyl)carbamoyl]phenyl}-5-methylpyridin-2-yl)-7-methyl-6,7-dihydro-2H-furo[2,3-f][1,3]benzodioxole-7-carboxamide], a half-maximal response (EC50) required 2500 nM and the “Maximum % activity (%)” value was 180%.
